One experiment has as its target T1, V. campbellii LuxR (Vibrio harveyi, UniProt P21308).
T1 construct: expressed in transfected cells; host or cells: E. coli DH10B with pKM699 and reporter pJV064
Kind of experiment: E. coli dual-color bioassay (pKM699 LuxR, pJV064 reporter). Format: cell-based. Particulars: for Inhibition of LuxR in the E. coli bioassay (in words): GFP and mCherry reporters. The source says:
Previously, we developed a bioassay that consists of a dual-color fluorescent reporter plasmid that reports both LuxR activities: the luxCDABE promoter is activated by LuxR and drives expression of gfp, and the VIBHAR_05222 promoter is repressed by LuxR and drives expression of mCherry (van Kessel et al., 2013b) (FIG. 2A). We used this reporter plasmid in an E. coli strain that also contains a plasmid expressing LuxR from its native promoter.
A bioassay was developed to monitor LuxR function that consists of a dual-color reporter plasmid (pJV064) that reports both activities: the luxCDABE promoter is activated by LuxR and drives expression of gfp, and the 05222 promoter is repressed by LuxR and drives expression of mCherry (van Kessel, Ulrich et al. 2013). This reporter plasmid was used in an E. coli strain that also contains a plasmid (pKM699) expressing LuxR from its native promoter. E. coli cultures containing these two plasmids were grown at 30° C. in LB medium with chloramphenicol (10 μg/ml) and tetracycline (10 μg/ml) to select for the two plasmids. Compounds were added to the cultures at a range of concentrations, and the cultures were incubated for 16 hours shaking at 30° C.
The dual-promoter fluorescence reporter assays were performed using E. coli strain DH10B containing two plasmids: 1) plasmid pJV064 containing the PluxC fused to GFP and P05222fused to mCherry to assess LuxR transcriptional regulation, and 2) plasmid pKM699 expressing V. campbellii luxR under control of its native promoter or empty vector pLAFR2.

The test system of experiment [1] is PluxC-gfp reporter in V. campbellii. Kind of experiment: PluxC-gfp reporter in V. campbellii strains. Conditions: Vibrio campbellii.
For experiment [2], the system named is PluxC-gfp reporter in V. vulnificus. Kind of experiment: PluxC-gfp reporter in V. vulnificus strains. Particulars: Vibrio vulnificus.
Experiment [3] relates to PluxC-gfp reporter in V. coralliilyticus. Kind of experiment: PluxC-gfp reporter in V. coralliilyticus strains.
In experiment [4] the test system is PluxC-gfp reporter in V. parahaemolyticus. The experiment is described as follows: PluxC-gfp reporter in V. parahaemolyticus strains. Conditions: Vibrio parahaemolyticus.
[5] abbreviates: read-out: IC50 in the bioassay (approximate).
[6] abbreviates: ATCC25920, read-out: Inhibition (IC50) of the PluxC-gfp reporter, Vcamp ATCC 25920.
Setting [7] is: read-out: Inhibition (IC50) of the PluxC-gfp reporter, Vcamp BB120.
[8] abbreviates: read-out: Inhibition (IC50) of the PluxC-gfp reporter, Vcamp HY01.
Setting [9] is: ATCC27562, read-out: Inhibition (IC50) of the PluxC-gfp reporter, Vvul ATCC 27562.
[10] abbreviates: read-out: Inhibition (IC50) of the PluxC-gfp reporter, Vvul CMPC6.
[11] abbreviates: read-out: Inhibition (IC50) of the PluxC-gfp reporter, Vvul YJ016.
[12] abbreviates: read-out: Inhibition (IC50) of the PluxC-gfp reporter, Vcoral OCN 008.
Where [13] appears, read: read-out: Inhibition (IC50) of the PluxC-gfp reporter, Vcoral OCN 014.
Setting [14] is: read-out: Inhibition (IC50) of the PluxC-gfp reporter, Vpara 12-297/B.
[15] abbreviates: read-out: Inhibition (IC50) of the PluxC-gfp reporter, Vpara D4.
The mark [16] stands for this setting: read-out: Inhibition (IC50) of the PluxC-gfp reporter, Vpara RIMD 2210633.

Where two headings read alike, the source gives them in different places.

T1 sequence (P21308 whole entry): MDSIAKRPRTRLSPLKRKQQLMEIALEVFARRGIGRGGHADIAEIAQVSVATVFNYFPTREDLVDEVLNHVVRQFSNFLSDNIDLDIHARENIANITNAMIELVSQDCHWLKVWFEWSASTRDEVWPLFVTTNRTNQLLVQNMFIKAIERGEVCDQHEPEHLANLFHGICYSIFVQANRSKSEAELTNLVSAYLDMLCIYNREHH

For `O=S(=O)(c1ccc(Br)s1)N1CCCC1` [P0074 H04, 1-((5-bromothiophen-2-yl)sulfonyl)pyrrolidine], on V. campbellii LuxR, the “Inhibition of LuxR in the E. coli bioassay (in words)” value (shortened to “Inhibition of LuxR”) was “consistent inhibition”. Also, the IC50 at V. campbellii LuxR (setting [5]) was about 35 µM.
For `O=S(=O)(c1cccs1)n1cccc1` [Compound 3B, 1-(thiophen-2-ylsulfonyl)-1H-pyrrole], the IC50 is 2 µM in experiment [1] (setting [6]); 18.9 µM in experiment [1] (setting [7]); 3.6 µM in experiment [1] (setting [8]); 0.9 µM in experiment [2] (setting [9]); 5.9 µM in experiment [2] (setting [10]); 1.5 µM in experiment [2] (setting [11]). Besides, the IC50 was found to be 39.2 µM in experiment [3] (setting [12]); 95.1 µM in experiment [3] (setting [13]); 4 µM in experiment [4] (setting [14]); 3.5 µM in experiment [4] (setting [15]); 2.5 µM in experiment [4] (setting [16]). The “Effect in V. coralliilyticus OCN008 (in words)” value in experiment [3] (OCN008) is given as “most noticeable effect”.
As to `Cc1ccn(S(=O)(=O)c2cccs2)n1` [Compound 8B, 3-methyl-1-(thiophen-2-ylsulfonyl)-1H-pyrazole], at V. campbellii LuxR, the “Inhibition of LuxR” value is “does not show inhibition”. The IC50 in experiment [1] (setting [6]) was found to be 3.9 µM; in experiment [1] (setting [7]), 32.4 µM; in experiment [1] (setting [8]), 8.7 µM; in experiment [2] (setting [9]) it was 1.9 µM; in experiment [2] (setting [10]), 11.5 µM; in experiment [2] (setting [11]), 3 µM. Moreover, the IC50 in experiment [3] (setting [12]) was found to be 26.1 µM; in experiment [3] (setting [13]) it was 26.8 µM; in experiment [4] (setting [14]), 6.7 µM; in experiment [4] (setting [15]) it was 8.4 µM; in experiment [4] (setting [16]), 7.3 µM.
As for `Cc1ccn(S(=O)(=O)c2ccc(Cl)s2)n1` [Compound 8C, 1-((5-chlorothiophen-2-yl)sulfonyl)-3-methyl-1H-pyrazole], the IC50 was 10 to 20 µM on V. campbellii LuxR (setting [5]); 1.5 µM in experiment [1] (setting [6]); 6.7 µM in experiment [1] (setting [7]); 2.7 µM in experiment [1] (setting [8]); 0.7 µM in experiment [2] (setting [9]); 4.6 µM in experiment [2] (setting [10]). In addition, the IC50 turned out to be 1 µM in experiment [2] (setting [11]); 2.7 µM in experiment [3] (setting [12]); 8.4 µM in experiment [3] (setting [13]); 3.3 µM in experiment [4] (setting [14]); 4.5 µM in experiment [4] (setting [15]); 3.8 µM in experiment [4] (setting [16]).
Turning to `O=S(=O)(c1ccc(Cl)s1)n1cccn1` [Compound 1C, 1-((5-chlorothiophen-2-yl)sulfonyl)-1H-pyrazole], the IC50 in experiment [1] (setting [6]) was found to be 0.5 µM; in experiment [1] (setting [7]), 3.3 µM; in experiment [1] (setting [8]), 1 µM; in experiment [2] (setting [9]), 0.4 µM; in experiment [2] (setting [10]) it was 2.3 µM; in experiment [2] (setting [11]), 0.8 µM. Further, the IC50 in experiment [3] (setting [12]) amounted to 9.1 µM; in experiment [3] (setting [13]) it was 9.4 µM; in experiment [4] (setting [14]), 1.6 µM; in experiment [4] (setting [15]) it was 12.5 µM; in experiment [4] (setting [16]), 1.7 µM.
Turning to `O=C(c1ccc(COc2ccc(Cl)cc2)o1)N1CCN(Cc2ccc3c(c2)OCO3)CC1` [P0053 I18, (4-(benzo[d][1,3]dioxol-5-ylmethyl)piperazin-1-yl)(5-((4-chlorophenoxy)methyl)furan-2-yl)methanone], the IC50 in experiment [1] (setting [6]) worked out at 1.8 µM; in experiment [1] (setting [7]), 2 µM; in experiment [1] (setting [8]), 4.3 µM; in experiment [2] (setting [9]) it was 0.7 µM; in experiment [2] (setting [10]) it was 4.9 µM; in experiment [2] (setting [11]), 3.2 µM. Also, the IC50 in experiment [3] (setting [12]) was determined as 18.9 µM; in experiment [3] (setting [13]), 10.4 µM; in experiment [4] (setting [14]) it was 8.1 µM; in experiment [4] (setting [15]) it was 6.4 µM; in experiment [4] (setting [16]) it was 2.8 µM.
On to `O=S(=O)(c1ccc(Br)s1)n1cccc1` [Compound 3A, 1-((5-bromothiophen-2-yl)sulfonyl)-1H-pyrrole], for which the IC50 in experiment [1] (setting [7]) was 15 µM; in experiment [1] (setting [8]) it was 1.6 µM; in experiment [2] (setting [9]), 0.7 µM; in experiment [2] (setting [10]), 6.1 µM; in experiment [2] (setting [11]), 1.3 µM; in experiment [3] (setting [12]) it was 23.1 µM. Besides, the IC50 in experiment [3] (setting [13]) was 22.6 µM; in experiment [4] (setting [14]), 3 µM; in experiment [4] (setting [15]), 2.8 µM; in experiment [4] (setting [16]), 2.6 µM.
Consider `O=S(=O)(c1ccc(Cl)s1)n1cccc1` [Compound 3C, 1-((5-chlorothiophen-2-yl)sulfonyl)-1H-pyrrole], for which the IC50 in experiment [1] (setting [7]) was found to be 8.3 µM; in experiment [2] (setting [9]) it was 0.5 µM; in experiment [3] (setting [12]), 1.3 µM; in experiment [4] (setting [16]) it was 2 µM.
With `O=S(=O)(c1ccccc1)n1cccn1` [Compound 1E, 1-(phenylsulfonyl)-1H-pyrazole], the IC50 turned out to be 8.4 µM in experiment [1] (setting [6]); 51.4 µM in experiment [1] (setting [7]); 14.8 µM in experiment [1] (setting [8]); 2.7 µM in experiment [2] (setting [9]); 22 µM in experiment [2] (setting [10]); 4.6 µM in experiment [2] (setting [11]). For the same compound, the IC50 was 49.2 µM in experiment [3] (setting [12]); 66.2 µM in experiment [3] (setting [13]); 8.1 µM in experiment [4] (setting [14]); 12.7 µM in experiment [4] (setting [15]); 11 µM in experiment [4] (setting [16]).
As for `Cc1ccn(S(=O)(=O)c2ccc(Br)s2)n1` [Compound 8A, 1-((5-bromothiophen-2-yl)sulfonyl)-3-methyl-1H-pyrazole], the IC50 at V. campbellii LuxR (setting [5]) is 10 to 20 µM; in experiment [1] (setting [6]) it was 0.7 µM; in experiment [1] (setting [7]) it was 3.8 µM; in experiment [1] (setting [8]), 1.2 µM; in experiment [2] (setting [9]), 0.4 µM; in experiment [2] (setting [10]) it was 2.1 µM. Moreover, the IC50 in experiment [2] (setting [11]) was 0.5 µM; in experiment [3] (setting [12]), 4.2 µM; in experiment [3] (setting [13]) it was 9.6 µM; in experiment [4] (setting [14]) it was 2.1 µM; in experiment [4] (setting [15]), 2.4 µM; in experiment [4] (setting [16]) it was 2 µM.
`FC(F)(F)C1CN(c2nc(-c3ccccc3)cs2)CCO1` (centres unmarked) [P2065 E16, 4-(4-phenylthiazol-2-yl)-2-(trifluoromethyl)morpholine]: the “Inhibition of LuxR” value at V. campbellii LuxR is listed as “only a minor inhibition”. Further, the IC50 on V. campbellii LuxR (Table 2, titration, 16 hours, read-out: Inhibition (IC50) of GFP production by LuxR in E. coli bioassay) was determined as 5.3 µM.
As to `O=S(=O)(c1cccs1)n1cccn1` [Compound 1B, 1-(thiophen-2-ylsulfonyl)-1H-pyrazole], the IC50 in experiment [1] (setting [6]) turned out to be 12.8 µM; in experiment [1] (setting [7]) it was 52.6 µM; in experiment [1] (setting [8]) it was 23.2 µM; in experiment [2] (setting [9]), 3.4 µM; in experiment [2] (setting [10]), 29.6 µM; in experiment [2] (setting [11]), 6.5 µM. Further, the IC50 in experiment [3] (setting [12]) was found to be 55.7 µM; in experiment [3] (setting [13]) it was 101 µM; in experiment [4] (setting [14]), 11.8 µM; in experiment [4] (setting [15]), 18.9 µM; in experiment [4] (setting [16]), 15.9 µM.

Values taken from patent US20230257373A1, “QUORUM SENSING INHIBITORS AND METHODS OF USE” (priority 2020, published 2023).
